Reference: US20100298141A1, “SUBSTITUTED PYRIDINE N-OXIDE HERBICIDES” (E. I. DU PONT DE NEMOURS AND COMPANY, priority 2007, published 2010)

Key:
[1] = tested on: catchweed bedstraw; assay: Test C pre-/postemergence test; format: in vivo, Galium aparine; conditions: for Plant response rating, Galium: 31 g ai/ha, scale 0 to 100 (0 no effect, 100 complete control)
In short: (§1)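 Test chemicals were formulated with surfactant in a non-phytotoxic solvent and sprayed both on freshly planted seeds (preemergence) and on 1- to 4-leaf plants of 2–18 cm (postemergence). Flooded-paddy pots received compound directly into 3 cm of standing water, maintained for the test.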

[2] = tested on: kochia; assay: Test C pre-/postemergence test; format: in vivo, Kochia scoparia
In short: as §1

[3] = tested on: eastern black nightshade; assay: Test C pre-/postemergence test; format: in vivo, Solanum ptycanthum; conditions: for Plant response rating, Nightshade: 31 g ai/ha, scale 0 to 100 (0 no effect, 100 complete control)
In short: as §1

[4] = tested on: rice; assay: Test C flooded paddy test; format: in vivo, Oryza sativa; conditions: Flood
In short: (§2)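 Flooded 3 cm over soil; compound into paddy water; depth kept constant. Greenhouse 13–15 d.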

[5] = tested on: velvetleaf; assay: Test C pre-/postemergence test; format: in vivo, Abutilon theophrasti
In short: as §1

[6] = tested on: common (oilseed) sunflower; assay: Test C pre-/postemergence test; format: in vivo, Helianthus annuus; conditions: for Plant response rating, Sunflower: 31 g ai/ha, scale 0 to 100 (0 no effect, 100 complete control)
In short: as §1

[7] = tested on: wild oat; assay: Test C pre-/postemergence test; format: in vivo, Avena fatua
In short: as §1

[8] = tested on: Surinam grass; assay: Test C pre-/postemergence test; format: in vivo, Brachiaria decumbens
In short: as §1

[9] = tested on: pigweed; assay: Test C pre-/postemergence test; format: in vivo, Amaranthus retroflexus
In short: as §1

[10] = tested on: barnyardgrass; assay: Test C flooded paddy test; format: in vivo, Echinochloa crus-galli; conditions: Flood
In short: as §2

[11] = tested on: wheat; assay: Test C pre-/postemergence test; format: in vivo, Triticum aestivum
In short: as §1

[12] = tested on: bermudagrass; assay: Test C pre-/postemergence test; format: in vivo, Cynodon dactylon
In short: as §1

[13] = tested on: redroot pigweed; assay: Test A pre-/postemergence greenhouse test; format: in vivo, Amaranthus retroflexus; conditions: for Plant response rating, Pigweed: 0 to 100 scale where 0 is no effect and 100 is complete control; for Pigweed plant response rating: 0 to 100 scale
In short: (§3)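 Planting was into mixed loam soil and sand; preemergence treatment followed as a directed soil spray. Concurrently, emerged plants (one- to two-leaf, 2–10 cm) received postemergence applications of identically formulated compound (non-phytotoxic solvent, surfactant). After approximately ten days under greenhouse conditions, injury was judged by eye against untreated plants.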

[14] = tested on: blackgrass; assay: Test C pre-/postemergence test; format: in vivo, Alopecurus myosuroides
In short: as §1

[15] = tested on: duck salad; assay: Test C flooded paddy test; format: in vivo, Heteranthera limosa; conditions: Flood
In short: as §2

[16] = tested on: corn; assay: Test A pre-/postemergence greenhouse test; format: in vivo, Zea mays; conditions: for Plant response rating, Corn: 0 to 100 scale where 0 is no effect and 100 is complete control; for Corn plant response rating: 0 to 100 scale
In short: as §3

[17] = tested on: crabgrass; assay: Test C pre-/postemergence test; format: in vivo, Digitaria sanguinalis
In short: as §1

[18] = 62 g ai/ha, Preemergence, scale 0 to 100
[19] = 125 g ai/ha, preemergence, scale 0 (no effect) to 100 (complete control)
[20] = preemergence, 250 g ai/ha, scale 0 (no effect) to 100 (complete control)
[21] = Postemergence, 62 g ai/ha, scale 0 to 100, 0 no effect, 100 complete control
[22] = Postemergence, 125 g ai/ha, scale 0 to 100, 0 no effect, 100 complete control
[23] = Postemergence, 250 g ai/ha, scale 0 to 100, 0 no effect, 100 complete control
[24] = Preemergence, 31 g ai/ha, scale 0 to 100 (0 no effect, 100 complete control)
[25] = 62 g ai/ha, scale 0 to 100, 0 no effect, 100 complete control, 13 to 15 days
[26] = 250 g ai/ha, scale 0 to 100, 0 no effect, 100 complete control, 13 to 15 days
[27] = 62 g ai/ha, Preemergence, scale 0 to 100 (0 no effect, 100 complete control)
[28] = Postemergence, 500 g ai/ha, 0 is no effect, 100 is complete control
[29] = Preemergence, 125 g ai/ha, 0 no effect, 100 complete control
[30] = 62 g ai/ha, scale 0 to 100 (0 no effect, 100 complete control)
[31] = Preemergence, 500 g ai/ha, 0 no effect, 100 complete control

[O-][n+]1cc(Cl)ccc1[S+]([O-])Cc1c(C(F)(F)F)nn(CC(F)(F)F)c1Cl (stereo not shown) [Compound 47]
Galium plant response rating [1, 18]: 85
Galium plant response rating [1, 19]: 90
Plant response rating, Galium ([1]; Preemergence): 80
Galium plant response rating [1, 20]: 100
Kochia plant response rating [2, 18]: 0
Kochia plant response rating [2, 19]: 100
Plant response rating (0 to 100), Kochia ([2]; Postemergence, 31 g ai/ha): 0
Plant response rating, Kochia [2, 21]: 0
Plant response rating, Kochia [2, 22]: 0
Plant response rating, Kochia [2, 23]: 0
Plant response rating, Kochia [2, 24]: 0
Kochia plant response rating [2, 20]: 100
Nightshade plant response rating [3, 18]: 85
Nightshade plant response rating [3, 19]: 90
Plant response rating, Nightshade ([3]; Preemergence): 0
Nightshade plant response rating [3, 20]: 100
Plant response rating, Rice [4, 25]: 55
Plant response rating, Rice [4, 26]: 65
Velvetleaf plant response rating [5, 18]: 0
Velvetleaf plant response rating [5, 19]: 70
Plant response rating (0 to 100), Velvetleaf ([5]; Postemergence, 31 g ai/ha): 0
Plant response rating (0 to 100), Velvetleaf ([5]; Postemergence, 62 g ai/ha): 0
Plant response rating, Velvetleaf [5, 22]: 0
Plant response rating, Velvetleaf [5, 23]: 20
Plant response rating, Velvetleaf [5, 24]: 0
Velvetleaf plant response rating [5, 20]: 100
Sunflower plant response rating [6, 18]: 0
Sunflower plant response rating [6, 19]: 0
Plant response rating, Sunflower ([6]; Preemergence): 0
Sunflower plant response rating [6, 20]: 0
Oat, Wild plant response rating [7, 18]: 10
Oat, Wild plant response rating [7, 19]: 90
Plant response rating (0 to 100), Oat, Wild ([7]; Postemergence, 31 g ai/ha): 0
Plant response rating, Oat, Wild [7, 21]: 0
Plant response rating, Oat, Wild [7, 22]: 10
Plant response rating, Oat, Wild [7, 23]: 40
Plant response rating, Oat, Wild [7, 24]: 10
Oat, Wild plant response rating [7, 20]: 95
Surinam Grass plant response rating [8, 18]: 80
Surinam Grass plant response rating [8, 19]: 100
Plant response rating (0 to 100), Surinam Grass ([8]; Postemergence, 31 g ai/ha): 0
Plant response rating (0 to 100), Surinam Grass ([8]; Postemergence, 62 g ai/ha): 0
Plant response rating, Surinam Grass [8, 22]: 0
Plant response rating, Surinam Grass [8, 23]: 60
Plant response rating, Surinam Grass [8, 24]: 50
Surinam Grass plant response rating [8, 20]: 100
Pigweed plant response rating [9, 18]: 100
Pigweed plant response rating [9, 19]: 100
Plant response rating (0 to 100), Pigweed ([9]; Postemergence, 31 g ai/ha): 0
Plant response rating (0 to 100), Pigweed ([9]; Postemergence, 62 g ai/ha): 0
Plant response rating, Pigweed [9, 22]: 0
Plant response rating, Pigweed [9, 23]: 45
Plant response rating, Pigweed [9, 24]: 70
Pigweed plant response rating [9, 20]: 100
Plant response rating, Barnyardgrass [10, 25]: 50
Plant response rating, Barnyardgrass [10, 26]: 80
Wheat plant response rating [11, 18]: 10
Wheat plant response rating [11, 19]: 60
Plant response rating (0 to 100), Wheat ([11]; Postemergence, 31 g ai/ha): 0
Plant response rating (0 to 100), Wheat ([11]; Postemergence, 62 g ai/ha): 0
Plant response rating, Wheat [11, 22]: 10
Plant response rating, Wheat [11, 23]: 50
Plant response rating, Wheat [11, 24]: 0
Wheat plant response rating [11, 20]: 85
Bermudagrass plant response rating [12, 27]: 100
Bermudagrass plant response rating [12, 19]: 100
Plant response rating (0 to 100), Bermudagrass ([12]; Postemergence, 31 g ai/ha): 0
Plant response rating, Bermudagrass [12, 21]: 0
Plant response rating, Bermudagrass [12, 22]: 0
Plant response rating, Bermudagrass [12, 23]: 0
Plant response rating, Bermudagrass [12, 24]: 80
Bermudagrass plant response rating [12, 20]: 100
Plant response rating, Pigweed ([13]; Postemergence, 125 g ai/ha): 60
Pigweed plant response rating [13, 28]: 80
Pigweed plant response rating [13, 29]: 100
Plant response rating, Pigweed ([13]; Preemergence, 500 g ai/ha): 100
Blackgrass plant response rating [14, 18]: 50
Blackgrass plant response rating [14, 19]: 100
Plant response rating (0 to 100), Blackgrass ([14]; Postemergence, 31 g ai/ha): 0
Plant response rating, Blackgrass [14, 21]: 20
Plant response rating, Blackgrass [14, 22]: 40
Plant response rating, Blackgrass [14, 23]: 70
Plant response rating, Blackgrass [14, 24]: 50
Blackgrass plant response rating [14, 20]: 100
Plant response rating, Ducksalad [15, 25]: 75
Plant response rating, Ducksalad [15, 26]: 90
Plant response rating, Corn ([16]; Postemergence, 125 g ai/ha): 50
Corn plant response rating [16, 28]: 70
Corn plant response rating [16, 29]: 50
Plant response rating, Corn ([16]; Preemergence, 500 g ai/ha): 90
Crabgrass, Large plant response rating [17, 18]: 100
Crabgrass, Large plant response rating [17, 19]: 100
Plant response rating (0 to 100), Crabgrass, Large ([17]; Postemergence, 31 g ai/ha): 0
Plant response rating, Crabgrass, Large [17, 21]: 0
Plant response rating, Crabgrass, Large [17, 22]: 0
Plant response rating, Crabgrass, Large [17, 23]: 30
Plant response rating, Crabgrass, Large [17, 24]: 98
Crabgrass, Large plant response rating [17, 20]: 100

CCc1cc[n+]([O-])c([S+]([O-])Cc2c(C(F)(F)F)nn(C)c2OC(F)F)c1 (stereo not shown) [Compound 101]
Galium plant response rating [1, 18]: 50
Galium plant response rating [1, 19]: 98
Plant response rating, Galium ([1]; Preemergence): 0
Galium plant response rating [1, 20]: 100
Kochia plant response rating [2, 18]: 30
Kochia plant response rating [2, 19]: 85
Plant response rating, Kochia [2, 24]: 0
Kochia plant response rating [2, 20]: 100
Nightshade plant response rating [3, 18]: 80
Nightshade plant response rating [3, 19]: 95
Plant response rating, Nightshade ([3]; Preemergence): 10
Nightshade plant response rating [3, 20]: 100
Plant response rating, Rice [4, 30]: 0
Plant response rating, Rice [4, 26]: 75
Velvetleaf plant response rating [5, 18]: 30
Velvetleaf plant response rating [5, 19]: 40
Plant response rating, Velvetleaf [5, 24]: 0
Velvetleaf plant response rating [5, 20]: 95
Sunflower plant response rating [6, 18]: 0
Sunflower plant response rating [6, 19]: 5
Plant response rating, Sunflower ([6]; Preemergence): 0
Sunflower plant response rating [6, 20]: 60
Oat, Wild plant response rating [7, 18]: 90
Oat, Wild plant response rating [7, 19]: 90
Plant response rating, Oat, Wild [7, 24]: 50
Oat, Wild plant response rating [7, 20]: 98
Surinam Grass plant response rating [8, 18]: 80
Surinam Grass plant response rating [8, 19]: 95
Plant response rating, Surinam Grass [8, 24]: 60
Surinam Grass plant response rating [8, 20]: 98
Pigweed plant response rating [9, 18]: 50
Pigweed plant response rating [9, 19]: 95
Plant response rating, Pigweed [9, 24]: 50
Pigweed plant response rating [9, 20]: 98
Plant response rating, Barnyardgrass [10, 30]: 0
Plant response rating, Barnyardgrass [10, 26]: 70
Wheat plant response rating [11, 18]: 65
Wheat plant response rating [11, 19]: 85
Plant response rating, Wheat [11, 24]: 50
Wheat plant response rating [11, 20]: 95
Bermudagrass plant response rating [12, 27]: 85
Bermudagrass plant response rating [12, 19]: 100
Plant response rating, Bermudagrass [12, 24]: 55
Bermudagrass plant response rating [12, 20]: 100
Plant response rating, Pigweed ([13]; Postemergence, 125 g ai/ha): 70
Pigweed plant response rating [13, 28]: 90
Pigweed plant response rating [13, 29]: 100
Pigweed plant response rating [13, 31]: 100
Blackgrass plant response rating [14, 18]: 30
Blackgrass plant response rating [14, 19]: 70
Plant response rating, Blackgrass [14, 24]: 0
Blackgrass plant response rating [14, 20]: 90
Plant response rating, Ducksalad [15, 30]: 0
Plant response rating, Ducksalad [15, 26]: 80
Plant response rating, Corn ([16]; Postemergence, 125 g ai/ha): 60
Corn plant response rating [16, 28]: 70
Corn plant response rating [16, 29]: 50
Corn plant response rating [16, 31]: 90
Crabgrass, Large plant response rating [17, 18]: 85
Crabgrass, Large plant response rating [17, 19]: 95
Plant response rating, Crabgrass, Large [17, 24]: 50
Crabgrass, Large plant response rating [17, 20]: 98
